The METLIN SMRT retention time set (Domingo-Almenara et al. 2019)

Assay: gradient 5% acetonitrile 3 min, to 50% in 2 min, to 85% in 15 min, held 3 min, 100 µL/min
Details: column: Zorbax Extend-C18 2.1 x 50 mm; eluents: water / acetonitrile, 0.1% formic acid
How it was run: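 Standards, all pure, were combined into mixtures of ~100 molecules and run at 100 μL/min on a Zorbax Extend-C18 column (2.1 × 50 mm, 1.8 μm) with water and acetonitrile, each containing 0.1% formic acid. A coupled quadrupole time-of-flight mass spectrometer operated in positive and negative ionization mode. Retention time values come from computationally picked adduct peaks, each inspected manually.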

| Structure (SMILES) | RP-LC retention time [s] |
| --- | --- |
| Cc1ccc2c(c1)N(Cc1ccccc1F)N=C(C(=O)N1CCC(C)CC1)S2(=O)=O | 1090 |
| CN1CCN(C(=O)C2CCCN(c3ncccc3-c3noc(C4CCC4)n3)C2)CC1 (configuration not stated) | 623 |
| Cc1ccn(CC(=O)NC2CCN(c3ccc(=O)n(CC4CC4)n3)C2)n1 (configuration not stated) | 631 |
| COc1ccc(OCC(=O)N(C)CCc2noc(C3CCCCC3)n2)cc1 | 912 |
| CNS(=O)(=O)c1c[nH]c(=O)[nH]c1=O | 624 |
| Cc1ccc(NC(=O)Cn2cnc3nc(N4CCCC(C(=O)NC(C)C)C4)sc3c2=O)c(F)c1 (configuration not stated) | 701 |
| O=C(NCc1csc(C2CCCN(C(=O)C3CC3)C2)n1)C1CCC1 (configuration not stated) | 667 |
| COC(=O)c1c(NC(=O)CN2C(=O)CCC2=O)sc(Cc2ccc3c(c2)OCO3)c1C | 864 |
| Cc1nnc(C2CCCN(C(=O)c3ccc(S(=O)(=O)N(C)C)cc3)C2)s1 (configuration not stated) | 642 |
| COc1cccc(CNC(=O)N2CCN(Cc3c(C)noc3C)CC2)c1 | 593 |
| CCN1CCCC1CNC(=O)c1nnc(-c2ccc(S(=O)(=O)N3CCCCC3)cc2)o1 (configuration not stated) | 645 |
| CSc1cccc(NC(=O)C2CCCN(c3ncnc4c3nc3n4CCCCC3)C2)c1 (configuration not stated) | 866 |
| CCn1cc(-c2ccc(Cl)cc2)cc1C(=O)N1CCCCC1 | 1150 |
| CC(C)c1csc(-c2csc(S(=O)(=O)NCc3ccc(F)cc3)c2)n1 | 1120 |
| O=C(CN1C(=O)CCC1=O)Nc1ncc(S(=O)(=O)c2ccc([N+](=O)[O-])cc2)s1 | 706 |
| O=C(Nc1cnn(-c2ncc(N3CCCC3)cn2)c1)Nc1ccccc1C(F)(F)F | 850 |
| CCNc1nc(C)cc(N2CCN(C(=O)Nc3cc(C)ccc3C)CC2)n1 | 668 |
| Nc1cc(C2CCN(C(=O)Nc3ccc(Cl)cc3F)CC2)no1 | 717 |
| COC1C(=O)N(CC2CC2)C12CCN(S(=O)(=O)Cc1ccccc1)CC2 (configuration not stated) | 819 |
| COCCN1CCn2cc(S(=O)(=O)Nc3ccc(C)cc3)cc2C1=O | 715 |
| Fc1ccccc1N1CCN(Cc2nc(-c3ccc(N4CCCC4)nc3)no2)CC1 | 698 |

More lines, now with the values ahead:

| RP-LC retention time [s] | Structure (SMILES) |
| --- | --- |
| 808 | CCn1nc(CNC(=O)c2ccc(C#N)cc2)c2ccccc21 |
| 911 | COc1ccc(-c2cc3c4nnc(SCC(=O)Nc5cccc(Cl)c5)n4ccn3n2)cc1 |
| 712 | COc1ccc(OC)c(CNC(=O)COc2ccc(NC(=O)C3CC3)cn2)c1 |
| 689 | Cn1nc(CNC(=O)c2cnccn2)c2ccccc21 |
| 1380 | Cc1ccc(-c2csc(NC(=O)COc3ccccc3C(C)(C)C)n2)cc1 |
| 736 | Cn1nc(CNC(=O)c2cccc(NC(=O)c3ccco3)c2)c2ccccc21 |
| 843 | C=Cc1ccc(Cn2ccn(-c3cccc(Cl)c3C)c(=O)c2=O)cc1 |
| 857 | Cc1ccc(CNC(=O)c2ccc3nn(CC(=O)NCCC4=CCCCC4)c(=O)n3c2)cc1 |
| 1080 | Cc1cccc(N2CCN(C(=O)CCC3CCCN(C(=O)Nc4ccccc4)C3)CC2)c1C (configuration not stated) |
| 595 | CCc1cc(=O)n(CC(=O)Nc2ccc(OC)cc2)c(N)n1 |
| 1050 | Cn1nccc1-c1cccc(-c2noc(Cc3ccccc3F)n2)c1 |
| 728 | CC(NC(=O)CCNc1c(-c2cccc(F)c2)nc2cnccn12)c1cccs1 (configuration not stated) |
| 660 | COc1ccc(-c2ncccc2CNS(=O)(=O)Cc2ccccc2F)cc1 |
| 627 | CCc1cc(=O)n(CC(=O)NCc2ccc(Cl)cc2)c(N)n1 |
| 912 | CCOC(=O)c1c(C)[nH]c(NC(=O)Nc2ccccc2C)c1C |
| 973 | COc1ccc(N2CC(c3nc(-c4ccccc4)no3)CC2=O)cc1Cl (configuration not stated) |
